Test results from paper PMC9682524, “Investigation of the Interaction between Human Serum Albumin and Branched Short-Chain Perfluoroalkyl Compounds” (Chemical Research in Toxicology, 2022).
Values joined by “and” are separate entries in the source; they are usually repeats but may differ in a detail not shown here. Identical values can stand only once. Like-named read-outs stand apart in the source and are kept apart here.

How the values were obtained:
[1] = environmentally exposed human populations; cited from earlier work
[2] = target: T1, human serum albumin (hSA) (Homo sapiens, UniProt P02768); assay: Isothermal titration calorimetry (ITC) of PFAS binding to defatted hSA
T1 construct: purchased Albumin Bioscience (Huntsville, AL, USA)
T1 sequence (P02768 25-609): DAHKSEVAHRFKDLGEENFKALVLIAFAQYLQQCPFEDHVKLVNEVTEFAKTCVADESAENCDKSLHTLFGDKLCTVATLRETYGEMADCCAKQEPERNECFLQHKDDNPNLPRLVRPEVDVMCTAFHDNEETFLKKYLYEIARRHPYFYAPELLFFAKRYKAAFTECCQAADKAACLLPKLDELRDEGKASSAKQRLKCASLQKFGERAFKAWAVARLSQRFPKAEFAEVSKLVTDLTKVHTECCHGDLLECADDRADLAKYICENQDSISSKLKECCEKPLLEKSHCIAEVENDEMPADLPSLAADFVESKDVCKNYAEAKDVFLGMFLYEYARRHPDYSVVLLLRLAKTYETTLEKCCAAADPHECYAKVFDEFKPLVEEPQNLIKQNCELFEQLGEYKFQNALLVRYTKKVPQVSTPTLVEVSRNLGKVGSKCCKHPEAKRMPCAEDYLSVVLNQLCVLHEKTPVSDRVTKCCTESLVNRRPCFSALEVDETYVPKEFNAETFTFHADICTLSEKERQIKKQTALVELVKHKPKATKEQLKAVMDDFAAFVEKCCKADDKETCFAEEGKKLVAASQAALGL
Method: (§1) ITC experiments were performed using a Microcal PEAQ-ITC instrument (Malvern Panalytical, Malvern, UK). Both dhSA (110 μM) and ligands (HPFO-DA, C6O4, PFHxA, Ibu, and War, 4 mM solutions) were dissolved in 50 mM NaPi, 100 mM NaCl, pH 7.4. Only in the case of War, 2.5% v/v DMSO was added to the buffer to improve its solubility. All working solutions were properly degassed. Titrations of dhSA with ligands were carried out at different temperatures (298 and 310 K). In each experiment, an initial 0.4 μL injection (excluded from subsequent data analysis) was followed by 25 independent injections of 1.5 μL with a stirring rate of 750 rpm to ensure rapid mixing. A 120 s interval between injections was applied to guarantee the equilibrium at each titration point. Blank experiments (ligands against buffer) were carried out for each ligand and subtracted to corresponding titrations in order to screen dilution heat contributions. Competition experiments were conducted by adding saturating concentrations of albumin-binding drugs (either 250 μM Ibu or 200 μM War) to dhSA in the measure cell and titrating each PFAS (4 mM) with the aforementioned instrumental parameters. Data were analyzed using the MicroCal PEAQ-ITC Evaluation software (Malvern Panalytical, Malvern, UK). Integrated heat signals were fitted to “one set of sites” (C6O4, PFHxA), “two sets of sites” (PFOA), or “sequential” (HPFO-DA) binding models. Values for the binding affinity constant (KA = 1/KD) and enthalpy change (ΔH), together with the stoichiometry of each PFAS-dhSA reaction, were obtained from curve fitting. Free energy and the entropy change (ΔS) were calculated from the Gibbs free energy (ΔG) relationships: ΔG = ΔH – TΔS = −RT ln(KA).

[3] = target: T1, human serum albumin (hSA); assay: Competitive ITC with hSA saturated with ibuprofen or warfarin; format: binding; settings: for titration profile to hSA saturated with War: 200 μM War; for titration profile to hSA saturated with War / titration profile to Ibu-saturated hSA: PFAS 4 mM titrant; for titration profile to Ibu-saturated hSA: 250 μM Ibu; for preferably occupied hSA binding sites: concluded from stoichiometry and competition with Ibu
Method: as §1
These include ibuprofen (Ibu) and warfarin (War), two well-characterized molecules known to share the same fatty acid-binding sites (FA4 and FA6 for Ibu, FA7 for War) with long-chain PFASs (Figure 2a).[45] Again, the short-chain perfluoroalkyl compound PFHxA was included as the control. […] The results are consistent with those previously reported that identified the ibuprofen-binding pocket as a preferable cavity to lodge polyfluoroalkyl compounds.[45]

[4] = target: T1, human serum albumin (hSA); assay: Crystal structure of hSA in complex with HPFO-DA and Myr (PDB 7Z57); format: binding; settings: ternary complex hSA-HPFO-DA-Myr, 1:20:5 molar ratio
Method: Crystallization trials of dhSA in complex with HPFO-DA, C6O4 and sodium myristate (Myr) were carried out at 285 K in an MRC maxi 48-well crystallization plate (Hampton Research, Aliso Viejo, CA, USA) using the sitting-drop vapor-diffusion method and the Morpheus MD1–46 protein crystallization screen kit (Molecular Dimensions Ltd., Catcliffe, UK). Droplets of 1.6 μL volume (0.8 μL of protein complex and 0.8 μL of reservoir solution) were set up using an Oryx 8 crystallization robot (Douglas Instruments Ltd., Catcliffe, UK) and equilibrated against 120 μL reservoir solution. In all the cases, best crystals were obtained by streak- or micro-seeding and left for 5–7 days. Crystals of dhSA (1 mM) incubated with a 20-fold molar excess of HPFO-DA (20 mM) and a fivefold molar excess of Myr (5 mM) were obtained using the following precipitant agents: 50 mM bicine, 50 mM Trizma base, 30 mM sodium fluoride, 30 mM sodium bromide, 30 mM sodium iodide, 12.5% v/v MPD, 12.5% w/v PEG 1000, and 12.5% w/v PEG 3350 pH 8.5. […]
The structure was solved by molecular replacement with software PHASER[49] using as a template the model 7AAI.[45] […] Intramolecular and intermolecular hydrogen bond interactions were analyzed by PROFUNC,[53] […]

[5] = 310 K, sequential binding, first binding event
[6] = 310 K, sequential binding, second binding event
[7] = 298 K, two sets of sites, high-affinity sites
[8] = 298 K, two sets of sites, low-affinity sites
[9] = 310 K, two sets of sites, high-affinity sites
[10] = 310 K, two sets of sites, low-affinity sites

SMILES	average half-life for serum elimination [1]	titration profile to hSA saturated with War [3]	titration profile to Ibu-saturated hSA [3]	preferably occupied hSA binding sites [3]	number of distinct binding sites occupied in crystal structure [4]	n (stoichiometry) ([2]; 298 K, one set of sites)	ΔG ([2]; 298 K, one set of sites)	ΔH ([2]; 298 K, one set of sites)	n (stoichiometry) ([2]; 310 K, one set of sites)	ΔG ([2]; 310 K, one set of sites)	ΔH ([2]; 310 K, one set of sites)	–TΔS ([2]; 310 K, one set of sites) [kcal/mol]	Kd ([2]; KD, 298 K, one set of sites) [µM]	Kd ([2]; KD, 310 K, one set of sites) [µM]	further results
O=S(=O)(O)C(F)(F)C(F)(F)C(F)(F)C(F)(F)C(F)(F)C(F)(F)C(F)(F)C(F)(F)F [PFOS, perfluorooctanesulfonic acid]	1–5 years	–	–	–	–	–	–	–	–	–	–	–	–	–	–
O=C(O)C(F)(OC(F)(F)C(F)(F)C(F)(F)F)C(F)(F)F (stereo not drawn) [HPFO-DA, 2,3,3,3-tetrafluoro-2-(heptafluoropropoxy) propanoic acid]	–	comparable to that of hSA in the absence of competitive drug	nearly saturated flat curve	FA4 and/or FA6 sites	two	–	–	–	–	–	–	–	–	–	fold lower binding affinity (KD) compared to PFOA high-affinity sites ([2]; 298 K): ~47 fold; ΔH2 ([2]; 298 K, sequential binding, second binding event): 8.08 kcal/mol and 8.08 ± 0.454 kcal/mol; ΔH1 [2, 5]: –23.2 ± 3.4 kJ/mol; –TΔS1 [2, 5]: –6.54 kJ/mol; ΔH2 [2, 6]: 6.74 ± 0.669 kcal/mol; –TΔS2 [2, 6]: –55.4 kJ/mol; Kd ([2]; KD1, 298 K, sequential binding, first binding event): 19 ± 1.3 µM; Kd ([2]; KD1, 310 K, sequential binding, first binding event): 9.9 ± 2.3 µM; Kd ([2]; KD2, 310 K, sequential binding, second binding event): 27 ± 8.1 µM; Kd ([2]; human, pH 7.4, KD2, 298 K, sequential binding, second binding event): > 80 µM; Kd ([2]; read-out: KD2, 298 K, sequential binding, second binding event): 84.2 ± 14.6 µM
O=C(O)C(F)(F)OC1(F)OC(F)(F)OC1(F)OC(F)(F)F (stereo not drawn) [C6O4, perfluoro ([5-methoxy-1,3-dioxolan-4-yl]oxy) acetic acid]	–	comparable to that of hSA in the absence of competitive drug	nearly saturated flat curve	FA4 and/or FA6 sites	–	1.6 ± 0.2	–32.10 kJ/mol	–21.4 ± 1.4 kJ/mol	1.5 ± 0.3	–31.70 kJ/mol	–25.8 ± 4.2 kJ/mol	0.406	2.4 ± 0.1	5.4 ± 2.1	–TΔS ([2]; 298 K, one set of sites): –10.7 kJ/mol
O=C(O)C(F)(F)C(F)(F)C(F)(F)C(F)(F)C(F)(F)C(F)(F)C(F)(F)F [PFOA, perfluorooctanoic acid]	1–5 years	–	–	–	–	–	–	–	–	–	–	–	–	–	n (stoichiometry) [2, 7]: 0.89 ± 0.30; ΔG [2, 7]: –36.10 kJ/mol; –TΔS [2, 7]: –17.70 kJ/mol; ΔG [2, 8]: –26.60 kJ/mol; –TΔS [2, 8]: –28.2 kJ/mol; n (stoichiometry) [2, 9]: 0.95 ± 0.2; ΔG [2, 9]: –38.10 kJ/mol; ΔH [2, 9]: –16.5 ± 1.9 kJ/mol; –TΔS [2, 9]: –21.6 kJ/mol; n (stoichiometry) [2, 10]: 9.5 ± 0.20; ΔG [2, 10]: –29.10 kJ/mol; ΔH [2, 10]: –2.26 ± 0.75 kJ/mol; –TΔS [2, 10]: –31.30 kJ/mol; Kd ([2]; KD, 298 K, two sets of sites, low-affinity sites): 29.7 ± 1.7 µM; Kd ([2]; KD, 310 K, two sets of sites, low-affinity sites): 46 ± 2 µM; Kd ([2]; human, pH 7.4, KD, 298 K, two sets of sites, high-affinity sites): 0.4 ± 0.01 µM; Kd ([2]; human, pH 7.4, KD, 310 K, two sets of sites, high-affinity sites): 39.3 ± 0.4 µM
CCCCCCCCCCCCCC(=O)O [Myr, sodium myristate]	–	–	–	–	four	–	–	–	–	–	–	–	–	–	–
O=C(O)C(F)(F)C(F)(F)C(F)(F)C(F)(F)C(F)(F)F [PFHxA, Perfluorohexanoic acid]	–	comparable to that of hSA in the absence of competitive drug	nearly saturated flat curve	FA4 and/or FA6 sites	–	1.02 ± 0.05	–30.60 kJ/mol	–34.1 ± 7.40 kJ/mol	1.03 ± 0.05	–31.70 kJ/mol	–39.2 ± 2.00 kJ/mol	1.84	4.5 ± 2.1	5.9 ± 0.7	–
